Results as given in patent US10857105B2, “Compounds and compositions for intracellular delivery of therapeutic agents” (ModernaTX, Inc., priority 2017, dated 2020).

Columns and labels:
[1] = Particle size and polydispersity index of nanoparticle compositions (Zetasizer Nano ZS); type: physicochemical
In short: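 Formulations of ionizable lipid, DSPC, cholesterol and PEG-DMG (50:10:38.5:1.5 mol %) carrying Luc or hEPO mRNA with all uridines as N1-methyl pseudouridine. Dynamic light scattering in 1×PBS gave particle size and polydispersity; zeta potential read in 15 mM PBS.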

modified luciferase = assay: Luciferase expression in liver, lung, spleen and femur 6 hours after intravenous administration to mice; type: in vivo; conditions: 6 hours after intravenous 0.5 mpk, mice
In short: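 Mice (n=3) got a single 0.5 mpk IV dose of each nanoparticle composition, with MC3 and PBS controls alongside. Organ luminescence flux was read 6 h post-dose.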

[2] = Encapsulation efficiency of RNA in nanoparticle compositions (RIBOGREEN assay); type: physicochemical
In short: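 Lipid nanoparticles (ionisable lipid:DSPC:cholesterol:PEG-DMG 50:10:38.5:1.5 mol %) carrying N1-methylpseudouridine luciferase or hEPO mRNA diluted to about 5 μg/mL in TE, pH 7.5, with or without 2% Triton X-100, 15 min at 37° C. RiboGreen fluorescence (ex ~480, em ~520 nm) blank-subtracted; free RNA = intact/disrupted signal.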

IL-6, IP-10 = assay: Cytokine induction (IL-6, IP-10) in mice 6 hours after intravenous administration; type: in vivo; parameters: unit not given here; conditions: intravenous 0.5 mpk
In short: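 IL-6 and IP-10 concentrations determined 6 hours after a single intravenous 0.5 mpk dose of lipid nanoparticle formulation in mice, with MC3 and PBS as comparators.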

[3] = test system: modified luciferase (Luc) mRNA and H10 mRNA; assay: Expression after intramuscular administration of formulations including Luc mRNA and H10 mRNA; type: in vivo
Experimental: Sample formulations including both modified luciferase (Luc) mRNA and H10 mRNA were prepared and administered intramuscularly and the resulting expression and immunogenicity were evaluated simultaneously. Formulations including compounds according to Formula (I), (IA), (IB), (II), (IIa), (IIb), (IIc), (IId), (IIe), (IIf), (IIg), or (III) were prepared and administered at doses of 0.001 and 0.01 mpk (e.g., doses of 0.0005 mpk of a formulation including Luc mRNA and a formulation including H10 mRNA or doses of 0.005 mpk of a formulation including Luc mRNA and a formulation including H10 mRNA).
The fluxes measured upon intravenous and intramuscular administration are compared in Table 6. Fluxes are presented as fold increase over that measured for MC3 formulations.

luciferase (Luc) mRNA [4] = assay: Luciferase expression (whole body bioluminescence) after intravenous administration to mice; type: in vivo; conditions: intravenous, luciferase; for Novel lipid/MC3 ratio, i.v.: Table 3G, 6 hr. timepoint, relative to MC3; for Novel lipid/MC3 expression ratio, i.v.: 6 hr. time point, relative to MC3 formulation
In short: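 Luc mRNA nanoparticles were given IV at 0.5 mg/kg to groups of six mice, and whole-body bioluminescent flux was imaged 3, 6 and 24 h post-dose. Flux AUC for each lipid formulation was reported as a ratio to the MC3 reference formulation.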

luciferase (Luc) mRNA [5] = assay: Luciferase expression after intramuscular administration to mice; type: in vivo; conditions: intramuscular
In short: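 CD-1 mice received lipid nanoparticle formulations of modified luciferase mRNA intramuscularly at 0.01 mpk. Bioluminescence total flux was measured, including at 6 h, and AUC was expressed relative to MC3 formulations. Immunogenicity was assessed in parallel.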

hEPO mRNA = assay: hEPO expression after intramuscular administration to mice; type: in vivo; conditions: intramuscular, hEPO
Experimental: The numbers 1-11 in this figure correspond to MC3, Compounds 18, 25, 30, 108-112, 60, and 122 respectively.
The expression of hEPO and cytokine induction in mice intravenously administered a nanoparticle composition at a dose of 0.5 mpk were measured at 3, 6, and 24 hours. […] The expression of hEPO in mice intramuscularly administered a nanoparticle composition from Table 1B at a dose of 0.01 mpk were measured at 3, 6, and 24 hours. […] (see

[6] = Table 1A, lipid:DSPC:cholesterol:PEG-DMG 50:10:38.5:1.5 mol %
[7] = Table 1C, compositions for subcutaneous administration
[8] = Table 1B, formulated with hEPO mRNA

Row | Size [1, 6] [nm] | Structure (SMILES) | Size [1, 7] [nm] | Total Flux, Liver (modified luciferase) | Total Flux, Lung (modified luciferase) | Total Flux, Spleen (modified luciferase) | EE [2, 6] [%] | Novel lipid/MC3 ratio, i.v. (luciferase (Luc) mRNA [4]) | Novel lipid/MC3 expression ratio, i.v. (luciferase (Luc) mRNA [4]) | also measured
1 | 102.3 | CCCCCCCCCOC(=O)CCCCCCCN(CCCCCCCC(=O)OC(CCCCCCCC)CCCCCCCC)CCCN/C(=N/C#N)N(C)C [Compound 168, Heptadecan-9-yl (Z)-8-((3-(2-cyano-3,3-dimethylguanidino)propyl)(8-(nonyloxy)-8-oxooctyl)amino)octanoate] | – | – | – | – | 91.4 | – | 0.11 | Novel lipid/MC3 expression ratio, i.m. Luc (luciferase (Luc) mRNA [5]; luciferase, 6 hr. time point, relative to MC3 formulation): 16.0; Novel lipid/MC3 expression ratio, i.m. hEPO (hEPO mRNA; 6 hr. time point, relative to MC3 formulation): 6.3; Size ([1]; Table 1D, compositions for subcutaneous administration, # formulated with hEPO mRNA): 87.4 nm; Size ([1]; Table 1E, compositions for subcutaneous administration): 85.0 nm
2 | 83.7 | CCCCCCCCCOC(=O)CCCCCCCN(CCCCCCCC(=O)OC(CCCCCCCC)CCCCCCCC)CCCNC(=O)NC [Compound 112, Heptadecan-9-yl 8-((3-(3-methylureido)propyl)(8-(nonyloxy)-8-oxooctyl)amino)octanoate] | 83.7 | 1.48E+08 | 1.83E+06 | 2.75E+07 | – | 0.08 | 0.08 | Total flux 6 hours after intramuscular administration, 0.01 mpk Dose (luciferase (Luc) mRNA [5]; Luc mRNA, 0.01 mpk, 6 hours): 9.47E+07 p/s; Novel lipid/MC3 ratio, i.m. hEPO (hEPO mRNA; Table 3G, 6 hr. timepoint, relative to MC3): 1.6; Size [1, 8]: 60.6 nm; EE [2, 8]: 96.40%

Row | Structure (SMILES) | Size [1, 6] [nm] | Size [1, 7] [nm] | Total Flux, Liver (modified luciferase) | Total Flux, Lung (modified luciferase) | Total Flux, Spleen (modified luciferase) | EE [2, 6] [%] | Novel lipid/MC3 ratio, i.v. (luciferase (Luc) mRNA [4]) | Novel lipid/MC3 expression ratio, i.v. (luciferase (Luc) mRNA [4]) | also measured
3 | CCCCCCCCCOC(=O)CCCCCCCN(CCCCO)CCCCCCCC(=O)OC(CCCCCCCC)CCCCCCCC [Compound 20, Heptadecan-9-yl 8-((4-hydroxybutyl)(8-(nonyloxy)-8-oxooctyl)amino) octanoate] | 86.7 | 86.7 | 1.84E+09 | 2.66E+07 | 1.43E+08 | 96.72 | 0.80 | 0.80 | Total Flux, Femur (modified luciferase; femur): 1.31E+07; Cytokine induction, IL-6 (IL-6, IP-10): 126.83; Cytokine induction, IP-10 (IL-6, IP-10): 2468.24; Expression upon intramuscular administration ([3]; doses of 0.001 and 0.01 mpk, 6 hours): highest expression at both dose levels; Fold increase in Luc expression over MC3 upon intramuscular administration ([3]; intramuscular): highest fold increase
